The values below are quoted from earlier work in patent US20110171184A1, “Method for Introducing a Pna Molecule Conjugated to a Positively Charged Peptide into the Cytosol and/or the Nucleus by Photochemical Internalisation (Pci)” (PCI Biotech AS, priority 2004, published 2011).

This series has as its system cells. To be noted: 10 μM, after 24 hours, no PCI.

Ends that are not written are not given here.

Regarding “scrambled NLS sequence (SEQ ID NO:4 KKVKPKR) conjugated to PNA: PNA conjugated to scrambled NLS sequence KKVKPKR (Cutrona et al.) (also: conjugated to PNA)”, the “presence of PNA in the nucleus” value is on record as “only minimal amounts of PNA in the nucleus”.
